The text below walks through data of paper PMC12238850, “Molecular determinants for recognition of serotonylated chromatin” (Nucleic Acids Research, 2025).

The koff is the rate constant with which the complex falls apart.

The target of this experiment is T1, Taf3-PHD P881E–W894F (Mus musculus, UniProt Q5HZG4, P881E/W894F).
T1 construct: Mus musculus Taf3-PHD domain (residues 857–924); GST (N, cleaved yes); made in house; host or cells: E. coli BL21(DE3), M9 minimal medium (13C/15N)
T1 sequence (Q5HZG4 857-924 P881E/W894F): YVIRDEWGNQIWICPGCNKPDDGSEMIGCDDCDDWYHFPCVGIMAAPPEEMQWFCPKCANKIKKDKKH
Kind of experiment: NMR titration line shape analysis (TITAN), double mutant Taf3-PHD. In kind it is binding. Here is the method:
The ^13C- and ^15N-labelled Taf3-PHD NMR samples were purified as described above, with minor differences. A single colony of freshly transformed BL21(DE3) E. coli was grown in a synthetic M9 minimal medium (6.0 g/l Na2HPO4·2H2O, 3.0 g/l KH2PO4, 0.5 g/l NaCl, 25 mg/l MgSO4, 290 μg/l CaCl2, 1 μg/l FeSO4·7H2O, 270 μg/l ZnCl2, and 5 mg/l thiamine) containing 2.0 g/l ^13C-glucose as the only carbon source and 0.5 g/l ^15NH4Cl as the sole nitrogen source. Protein expression, lysis, and loading to Glutathione Sepharose™ column were performed as described above. The GST-tag was removed through on-column thrombin digestion by loading excess thrombin (SERVA) in wash buffer followed by overnight digestion at 4°C. The cleaved PHD moiety with a […] N-terminal extension (Gly–Ser–His–Met–Ala–Met–Ala) remaining from the thrombin cleavage site was collected from the flow-through and further purified in a Mono Q™ 10/100 GL as before and subsequently loaded to a Superdex-75 HiLoad 16/600 gel filtration column in NMR buffer (20 mM KPi, pH 7.0, 150 mM KCl, 10 μM ZnCl2) (Supplementary Fig. S1).
All data were recorded at 298 K on a Bruker Avance III HD 900 MHz spectrometer equipped with a cryoprobe, unless noted otherwise. Sample for assignment verification contained 0.3 mM ^13C- and ^15N-labelled PHD finger of Taf3 (residues 857–924) in NMR buffer (20 mM KPi, pH 7.0, 150 mM KCl, 10 μM ZnCl2, 0.01% NaN3, 10% D2O) in a 5-mm NMR tube. Samples for peptide interaction studies contained 0.19 mM ^13C- and ^15N-labelled PHD in NMR buffer in 3-mm NMR tubes. Lyophilized peptides were dissolved in NMR buffer including 1 mM sodium 3-(trimethylsilyl)tetradeuteriopropanionate (TSP) into 20 mM stock solutions. Upon dilution to 1 mM, all peptide solutions were at pH 7.0 in NMR buffer. Peptide concentrations were determined by comparing the integral of the Thr methyl signal (from T3, T6, and T11, total nine protons) to that of TSP using a quantitative 1D experiment (recycle delay 60 s) recorded at a Bruker Avance III 600 MHz spectrometer. Saturated complexes with H3K4me1/H3K4me2/H3K4me3 peptides with and without H3Q5ser were made by adding peptide to a 0.7 mM final concentration (3.6 equiv.). […] Additional samples were prepared using 30%, 50%, 80%, and 160% equiv. of peptide. All spectra were recorded and processed using Bruker Topspin and analysed using NMR-FAM Sparky and Poky.
For the H3K4me2 complexes, the resonance of G879 was excluded due to overlap and that of K875 was included. Spectra were processed using NMRPipe using exponential line broadening of 10/15 Hz in the direct/indirect dimension of the free induction decay before Fourier transform. Data were fit against a 1:1 binding model that also optimizes the ligand concentration to compensate for concentration errors. […]

Read-outs that look alike come from different tables or passages of the source.

Turning to `C[C@H](N)C(=O)N[C@@H](CCCNC(=N)N)C(=O)N[C@H](C(=O)N[C@@H](CCCC[N+](C)(C)C)C(=O)N[C@@H](CCC(=O)NCCc1c[nH]c2ccc(O)cc12)C(=O)N[C@H](C(=O)N[C@@H](C)C(=O)N[C@@H](CCCNC(=N)N)C(=O)N[C@@H](CCCCN)C(=O)N[C@@H](CO)C(=O)N[C@H](C(=O)NCC(N)=O)[C@@H](C)O)[C@@H](C)O)[C@@H](C)O` [H3K4me3Q5ser], the koff came to 24.2 ± 0.9 s⁻¹. Besides, the koff (read-out: koff 95% confidence limits) fell in the range of 18 to 33 s⁻¹.
Turning to `C[C@H](N)C(=O)N[C@@H](CCCNC(=N)N)C(=O)N[C@H](C(=O)N[C@@H](CCCC[N+](C)(C)C)C(=O)N[C@@H](CCC(N)=O)C(=O)N[C@H](C(=O)N[C@@H](C)C(=O)N[C@@H](CCCNC(=N)N)C(=O)N[C@@H](CCCCN)C(=O)N[C@@H](CO)C(=O)N[C@H](C(=O)NCC(N)=O)[C@@H](C)O)[C@@H](C)O)[C@@H](C)O` [H3K4me3], the koff by setting is: (NMR line shape fit (TITAN), P881E–W894F mutant, average ± standard error from bootstrap, read-out: koff) 29.6 ± 0.9 s⁻¹; (NMR line shape fit (TITAN), P881E–W894F mutant, read-out: koff 95% confidence limits) 22 to 40 s⁻¹.
